Literature values, collected in US11944682B2, “Aggregation induced emission-bacteriophage bioconjugates” (priority 2020, dated 2024).

Details: used as standard

O=C1OC2(c3cc(I)c(O)c(I)c3Oc3c2cc(I)c(O)c3I)c2c(Cl)c(Cl)c(Cl)c(Cl)c21 [Rose Bengal, Rose Bengal lactone]
quantum yield for 1O2 (standard): ~75%
